{"source": "patent US9856245B2", "about": "“GPR40 agonists for the treatment of type II diabetes” (Janssen Pharmaceutica NV, priority 2015, dated 2018)", "note": "Several values for one entry are separate records, joined by “and”; a condition that tells them apart may be missing. Identical values can stand only once."}
{"target": "T1, human GPR40 (Homo sapiens, UniProt O14842)", "T1 construct": "expressed in transfected cells", "T1 sequence (O14842 whole entry)": "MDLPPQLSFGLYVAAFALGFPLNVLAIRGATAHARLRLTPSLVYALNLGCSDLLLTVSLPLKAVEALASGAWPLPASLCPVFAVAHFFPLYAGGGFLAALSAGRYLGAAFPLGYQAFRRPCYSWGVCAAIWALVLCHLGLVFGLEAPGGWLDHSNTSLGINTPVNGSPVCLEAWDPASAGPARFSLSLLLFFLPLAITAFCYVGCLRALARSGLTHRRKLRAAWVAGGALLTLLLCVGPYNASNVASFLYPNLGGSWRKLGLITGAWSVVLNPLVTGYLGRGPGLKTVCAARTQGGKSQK", "test": "GPR40 calcium flux assay (hGPR40 Ca2+ Assay)", "assay_type": "cell-based", "settings": "transfected HEK293 cells stably expressing human GPR40; Fluo 8 calcium dye; multiple values = repeated testing; read-out: hGPR40 Ca^2+ Assay EC50", "procedure": "Compounds were tested in a calcium flux assay using transfected HEK293 cells stably expressing either human GPR40 or rat GPR40. Human GPR40 expressing cells were cultured in DMEM-High Glucose media supplemented with 10% fetal bovine serum, 1× L-Glutamine, 1× Penicillin/Streptomycin and 500 μg/mL G418. Rat GPR40 expressing cells were cultured in DMEM-High Glucose media supplemented with 10% fetal bovine serum and 1 μg/mL puromycin. Cells were plated into poly-D-lysine coated 384-well plates and cultured overnight in a 37° C. humidified tissue culture incubator under 5% CO2/[…] atmosphere. On the day of the experiment, the culture media was replaced with assay buffer (HBSS, 20 mM HEPES, 0.1% BSA) and the cells incubated at 37° C. for 1 h. Calcium-sensitive fluorescent dye (Fluo 8 No-Wash Calcium Dye, ABD Bioquest) was then added and the cells incubated for another 30 min at 37° C. followed by 15 min at room temperature while protected from the light. The cell plate and a plate of diluted compounds of Formula (III) were loaded into a fluorescent plate reader that added compounds onto the cells while measuring the fluorescence intensity of each well. The plate reader recorded fluorescence intensity at 1 second intervals for 8 min and provided the data for analysis in an Excel format. EC50 values were calculated using Prism (GraphPad) software."}
{"smiles": "COc1ccc(F)c(-n2ncc(COc3cc(C(CC(=O)O)C4CC4)ccn3)c2C2=CCCC2(C)C)c1", "note": "(stereo not shown) [Cpd 65, 3-cyclopropyl-3-[2-[[5-(5,5-dimethylcyclopenten-1-yl)-1-(2-fluoro-5-methoxy-phenyl)pyrazol-4-yl]methoxy]-4-pyridyl]propanoic acid]", "EC50": "1 nM"}
{"smiles": "COc1ccc(F)c(-n2ncc(COc3cccc([C@@H](CC(=O)O)C4CC4)c3)c2N2CCOCC2)c1", "note": "[Cpd 73, (3S)-3-cyclopropyl-3-[3-[[1-(2-fluoro-5-methoxy-phenyl)-5-morpholino-pyrazol-4-yl]methoxy]phenyl]propanoic acid]", "EC50": "27 nM"}
{"smiles": "COc1ccc(F)c(-n2ncc(COc3cccc([C@@H](CC(=O)O)C4CC4)c3)c2C2CC2)c1", "note": "[Cpd 69, (3S)-3-cyclopropyl-3-[3-[[5-cyclopropyl-1-(2-fluoro-5-methoxy-phenyl)pyrazol-4-yl]methoxy]phenyl]propanoic acid]", "EC50": "15 nM and 21 nM and 17 nM"}
{"smiles": "COc1ccc(F)c(-n2nnc(CCc3cccc([C@@H](CC(=O)O)C4CC4)c3)c2C2CC2)c1", "note": "[Cpd 79, (3S)-3-cyclopropyl-3-[3-[2-[5-cyclopropyl-1-(2-fluoro-5-methoxy-phenyl)triazol-4-yl]ethyl]phenyl]propanoic acid]", "EC50": "103 nM"}
{"smiles": "COc1ccc(F)c(-n2nnc(COc3cccc([C@@H](CC(=O)O)C4CC4)c3)c2-c2ccc(C)s2)c1", "note": "[Cpd 88, (3S)-3-cyclopropyl-3-[3-[[1-(2-fluoro-5-methoxy-phenyl)-5-(5-methyl-2-thienyl)triazol-4-yl]methoxy]phenyl]propanoic acid]", "EC50": "24 nM and 23 nM"}
{"smiles": "COc1ccc(F)c(-n2ncc(COc3cccc([C@@H](CC(=O)O)C4CC4)c3)c2C2=CCCC2(C)C)c1", "note": "[Cpd 66, (3S)-3-cyclopropyl-3-[3-[[5-(5,5-dimethylcyclopenten-1-yl)-1-(2-fluoro-5-methoxy-phenyl)pyrazol-4-yl]methoxy]phenyl]propanoic acid]", "EC50": "2 nM and 1 nM"}
{"smiles": "COc1ccc(F)c(-n2ncc(CCc3cccc(C(CC(=O)O)C4CC4)c3)c2C2CC2)c1", "note": "(stereo not shown) [Cpd 77, 3-cyclopropyl-3-[3-[2-[5-cyclopropyl-1-(2-fluoro-5-methoxy-phenyl)pyrazol-4-yl]ethyl]phenyl]propanoic acid]", "EC50": "66 nM"}
{"smiles": "COc1ccc(F)c(-n2nnc(COc3cccc([C@@H](CC(=O)O)C4CC4)c3)c2C=C(C)C)c1", "note": "[Cpd 84, (3S)-3-cyclopropyl-3-[3-[[1-(2-fluoro-5-methoxy-phenyl)-5-(2-methylprop-1-enyl)triazol-4-yl]methoxy]phenyl]propanoic acid]", "EC50": "38 nM and 31 nM and 37 nM (2×)"}
{"smiles": "COc1ccc(F)c(-n2nnc(COc3cccc([C@@H](CC(=O)O)C4CC4)c3)c2C)c1", "note": "[Cpd 82, (3S)-3-cyclopropyl-3-[3-[[1-(2-fluoro-5-methoxy-phenyl)-5-methyl-triazol-4-yl]methoxy]phenyl]propanoic acid]", "EC50": "261 nM and 248 nM"}
{"smiles": "COc1ccc(F)c(-n2nnc(COc3cccc([C@@H](CC(=O)O)C4CC4)c3)c2C2CC2)c1", "note": "[Cpd 85, (3S)-3-cyclopropyl-3-[3-[[5-cyclopropyl-1-(2-fluoro-5-methoxy-phenyl)triazol-4-yl]methoxy]phenyl]propanoic acid]", "EC50": "65 nM and 63 nM"}
{"smiles": "COc1ccc(F)c(-n2ncc(COc3cccc([C@@H](CC(=O)O)C4CC4)c3)c2-c2ccc(C)s2)c1", "note": "[Cpd 94, (3S)-3-cyclopropyl-3-[3-[[1-(2-fluoro-5-methoxy-phenyl)-5-(5-methyl-2-thienyl)pyrazol-4-yl]methoxy]phenyl]propanoic acid]", "EC50": "121 nM and 60 nM"}
{"smiles": "COc1ccc(F)c(-n2cnc(COc3cccc([C@@H](CC(=O)O)C4CC4)c3)c2C2=CCCC2(C)C)c1", "note": "[Cpd 87, (3S)-3-cyclopropyl-3-[3-[[5-(5,5-dimethylcyclopenten-1-yl)-1-(2-fluoro-5-methoxy-phenyl)imidazol-4-yl]methoxy]phenyl]propanoic acid]", "EC50": "85 nM and 68 nM"}
{"smiles": "COc1ccc(F)c(-n2nnc(COc3cccc([C@@H](CC(=O)O)C4CC4)c3)c2OC2CCCC2)c1", "note": "[Cpd 67, (3S)-3-[3-[[5-(cyclopentoxy)-1-(2-fluoro-5-methoxy-phenyl)triazol-4-yl]methoxy]phenyl]-3-cyclopropyl-propanoic acid]", "EC50": "6 nM and 10 nM (2×)"}
